The values that follow are results of earlier work, collected in patent US12318421B2 (priority 2020, dated 2025).

The data set addresses α-glucosidase. The settings on record: values disclosed in references.

Turning to `O=c1cc(-c2ccc(O)cc2)oc2cc(O)c([C@@H]3O[C@H](CO)[C@@H](O)[C@H](O)[C@H]3O)c(O)c12` [isovitexin], the “IC50 of α-glucosidase activity disclosed in references” value is 46.9 µg/mL.
